Results taken from ChEMBL document CHEMBL4229346, “New insights in the structure-activity relationships of 2-phenylamino-substituted benzothiopyrano[4,3-d]pyrimidines as kinase inhibitors” (Eur J Med Chem, 2018).

How the values were obtained:
[1] = Growth inhibition of HUVEC after 72 hrs by trypan blue assay; format: cell-based; conditions: human, HUVEC cells
[2] = system: HeLa; assay: Growth inhibition of human HeLa cells after 72 hrs by trypan blue assay; format: functional
[3] = system: A-431; assay: Growth inhibition of human A431 cells after 72 hrs by trypan blue assay; format: functional; conditions: A-431, 72 h
[4] = system: MSTO-211H; assay: Growth inhibition of human MSTO-211H cells after 72 hrs by trypan blue assay; format: functional
[5] = biological target: Vascular endothelial growth factor receptor 2 (Homo sapiens, UniProt P35968); assay: Inhibition of recombinant human His-tagged KDR cytoplasmic domain (789 to 1356 residues) expressed in baculovirus expression system using Z'-LYTE-Tyr1 as substrate measured after 1 hr by Z'-LYTE assay
Sequence of Vascular endothelial growth factor receptor 2 (P35968 whole entry, the tested form may be a part): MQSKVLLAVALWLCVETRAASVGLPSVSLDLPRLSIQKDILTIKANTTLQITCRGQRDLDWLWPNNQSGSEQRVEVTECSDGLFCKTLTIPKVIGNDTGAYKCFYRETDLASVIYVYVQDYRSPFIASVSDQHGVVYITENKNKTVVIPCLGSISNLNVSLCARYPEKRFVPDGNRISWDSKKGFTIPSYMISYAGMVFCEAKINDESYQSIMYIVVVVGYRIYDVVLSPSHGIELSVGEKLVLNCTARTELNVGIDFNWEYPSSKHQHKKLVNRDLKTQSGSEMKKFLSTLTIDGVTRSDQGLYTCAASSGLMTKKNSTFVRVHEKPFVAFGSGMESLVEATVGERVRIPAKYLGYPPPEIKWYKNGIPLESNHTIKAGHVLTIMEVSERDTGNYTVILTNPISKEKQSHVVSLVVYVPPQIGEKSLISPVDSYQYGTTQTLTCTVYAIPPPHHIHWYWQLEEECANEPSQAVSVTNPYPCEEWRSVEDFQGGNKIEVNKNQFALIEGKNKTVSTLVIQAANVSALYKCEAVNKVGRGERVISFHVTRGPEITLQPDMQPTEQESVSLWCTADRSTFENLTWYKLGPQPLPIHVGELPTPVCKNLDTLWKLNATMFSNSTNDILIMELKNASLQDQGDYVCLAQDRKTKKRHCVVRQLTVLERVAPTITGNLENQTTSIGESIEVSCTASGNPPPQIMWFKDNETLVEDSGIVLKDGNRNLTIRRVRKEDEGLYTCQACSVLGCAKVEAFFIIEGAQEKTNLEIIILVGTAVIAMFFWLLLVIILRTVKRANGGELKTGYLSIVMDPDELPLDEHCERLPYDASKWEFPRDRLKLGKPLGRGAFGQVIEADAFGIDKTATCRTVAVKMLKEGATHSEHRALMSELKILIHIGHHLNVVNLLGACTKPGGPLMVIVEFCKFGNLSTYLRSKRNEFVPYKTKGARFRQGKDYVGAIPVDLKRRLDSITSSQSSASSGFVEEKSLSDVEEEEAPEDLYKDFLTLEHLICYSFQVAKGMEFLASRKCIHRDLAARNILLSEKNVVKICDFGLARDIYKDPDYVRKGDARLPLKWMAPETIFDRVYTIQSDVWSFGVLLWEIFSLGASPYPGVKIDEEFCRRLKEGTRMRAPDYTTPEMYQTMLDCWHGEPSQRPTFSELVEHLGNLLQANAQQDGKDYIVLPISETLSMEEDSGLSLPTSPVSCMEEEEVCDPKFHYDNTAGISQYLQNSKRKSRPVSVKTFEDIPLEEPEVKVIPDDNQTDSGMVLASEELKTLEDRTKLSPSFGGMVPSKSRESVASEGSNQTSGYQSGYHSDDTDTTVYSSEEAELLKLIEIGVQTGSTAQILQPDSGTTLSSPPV

[6] = biological target: Proto-oncogene tyrosine-protein kinase Src (Homo sapiens) (UniProt P12931); assay: Inhibition of recombinant human Src at 10^-5 M using Ulight-Poly GAT[EAY(1:1:1)]n as substrate measured after 10 mins by LANCE assay relative to control
[7] = biological target: RAF proto-oncogene serine/threonine-protein kinase (Homo sapiens) (UniProt P04049); assay: Inhibition of recombinant human RAF1 at 10^-5 M relative to control
Sequence of RAF proto-oncogene serine/threonine-protein kinase (Homo sapiens) (P04049 whole entry): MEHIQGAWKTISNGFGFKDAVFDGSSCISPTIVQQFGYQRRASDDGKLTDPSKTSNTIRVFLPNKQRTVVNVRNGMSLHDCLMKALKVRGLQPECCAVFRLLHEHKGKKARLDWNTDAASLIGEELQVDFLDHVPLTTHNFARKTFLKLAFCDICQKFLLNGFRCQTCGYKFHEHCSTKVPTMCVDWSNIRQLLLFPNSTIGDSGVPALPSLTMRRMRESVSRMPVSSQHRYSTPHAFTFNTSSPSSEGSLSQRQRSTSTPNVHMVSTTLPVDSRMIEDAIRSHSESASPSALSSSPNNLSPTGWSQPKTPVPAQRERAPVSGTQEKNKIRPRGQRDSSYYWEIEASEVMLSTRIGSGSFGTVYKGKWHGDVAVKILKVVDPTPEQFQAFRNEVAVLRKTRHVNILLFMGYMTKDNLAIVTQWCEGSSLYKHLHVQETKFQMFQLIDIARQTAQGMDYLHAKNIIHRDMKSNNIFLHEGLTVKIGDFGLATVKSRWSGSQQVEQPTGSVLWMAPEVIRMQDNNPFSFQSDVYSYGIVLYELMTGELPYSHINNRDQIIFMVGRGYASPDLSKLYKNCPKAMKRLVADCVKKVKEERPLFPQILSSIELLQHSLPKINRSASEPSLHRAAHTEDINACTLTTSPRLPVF

[8] = biological target: T1, Aurora kinase A (Homo sapiens) (UniProt O14965); assay: Inhibition of recombinant human Aurora-A at 10^-5 M using Ulight-RRRSLLE as substrate measured after 15 mins by LANCE assay relative to control
T1 sequence (whole entry): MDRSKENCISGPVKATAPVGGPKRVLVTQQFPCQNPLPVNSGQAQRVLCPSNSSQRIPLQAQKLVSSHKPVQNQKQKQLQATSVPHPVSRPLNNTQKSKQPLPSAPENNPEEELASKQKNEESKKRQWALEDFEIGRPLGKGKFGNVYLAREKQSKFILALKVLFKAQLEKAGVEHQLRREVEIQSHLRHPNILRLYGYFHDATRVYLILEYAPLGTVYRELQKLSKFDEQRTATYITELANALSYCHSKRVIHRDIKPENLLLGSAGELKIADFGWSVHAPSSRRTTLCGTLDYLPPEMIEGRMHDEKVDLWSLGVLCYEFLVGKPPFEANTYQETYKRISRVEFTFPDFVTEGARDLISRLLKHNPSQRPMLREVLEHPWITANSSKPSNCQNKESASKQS

[9] = biological target: Cyclin-dependent kinase 1/cyclin B1 (Homo sapiens) (UniProt P06493+P14635); assay: Inhibition of recombinant human CDK1/Cyclin B at 10^-5 M using Ulight-CFFKNIVTPRTPPPSQGK-amide as substrate measured after 15 mins by LANCE assay relative to control; format: protein-complex assay
Sequence of Cyclin-dependent kinase 1/cyclin B1 (Homo sapiens) (P06493 whole entry, looked up): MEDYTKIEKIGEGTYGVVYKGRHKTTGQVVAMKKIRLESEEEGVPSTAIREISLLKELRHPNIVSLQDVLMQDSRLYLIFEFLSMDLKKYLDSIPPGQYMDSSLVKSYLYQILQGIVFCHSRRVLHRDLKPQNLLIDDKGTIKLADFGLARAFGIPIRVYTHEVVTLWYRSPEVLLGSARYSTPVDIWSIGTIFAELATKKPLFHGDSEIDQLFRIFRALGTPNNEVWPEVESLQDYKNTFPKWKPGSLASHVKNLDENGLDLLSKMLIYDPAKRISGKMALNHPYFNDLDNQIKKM
Sequence of Cyclin-dependent kinase 1/cyclin B1 (Homo sapiens) (P14635 whole entry, looked up): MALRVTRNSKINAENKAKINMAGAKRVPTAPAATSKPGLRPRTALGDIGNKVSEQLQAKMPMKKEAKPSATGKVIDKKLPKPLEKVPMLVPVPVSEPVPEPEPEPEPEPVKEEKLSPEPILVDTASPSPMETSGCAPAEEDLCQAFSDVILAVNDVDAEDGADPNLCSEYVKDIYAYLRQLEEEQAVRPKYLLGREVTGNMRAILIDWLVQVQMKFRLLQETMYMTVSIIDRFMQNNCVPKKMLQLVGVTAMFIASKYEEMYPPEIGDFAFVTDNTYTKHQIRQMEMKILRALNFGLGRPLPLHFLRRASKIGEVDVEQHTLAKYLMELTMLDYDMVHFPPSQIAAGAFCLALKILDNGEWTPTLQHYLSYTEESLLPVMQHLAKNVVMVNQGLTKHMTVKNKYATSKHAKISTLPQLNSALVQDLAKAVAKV

[10] = biological target: Epidermal growth factor receptor (Homo sapiens) (UniProt P00533); assay: Inhibition of recombinant human EGFR at 10^-5 M using Ulight-CAGAGAIETDKEYYTVKD as substrate measured after 15 mins by LANCE assay relative to control
Sequence of Epidermal growth factor receptor (Homo sapiens) (P00533 whole entry): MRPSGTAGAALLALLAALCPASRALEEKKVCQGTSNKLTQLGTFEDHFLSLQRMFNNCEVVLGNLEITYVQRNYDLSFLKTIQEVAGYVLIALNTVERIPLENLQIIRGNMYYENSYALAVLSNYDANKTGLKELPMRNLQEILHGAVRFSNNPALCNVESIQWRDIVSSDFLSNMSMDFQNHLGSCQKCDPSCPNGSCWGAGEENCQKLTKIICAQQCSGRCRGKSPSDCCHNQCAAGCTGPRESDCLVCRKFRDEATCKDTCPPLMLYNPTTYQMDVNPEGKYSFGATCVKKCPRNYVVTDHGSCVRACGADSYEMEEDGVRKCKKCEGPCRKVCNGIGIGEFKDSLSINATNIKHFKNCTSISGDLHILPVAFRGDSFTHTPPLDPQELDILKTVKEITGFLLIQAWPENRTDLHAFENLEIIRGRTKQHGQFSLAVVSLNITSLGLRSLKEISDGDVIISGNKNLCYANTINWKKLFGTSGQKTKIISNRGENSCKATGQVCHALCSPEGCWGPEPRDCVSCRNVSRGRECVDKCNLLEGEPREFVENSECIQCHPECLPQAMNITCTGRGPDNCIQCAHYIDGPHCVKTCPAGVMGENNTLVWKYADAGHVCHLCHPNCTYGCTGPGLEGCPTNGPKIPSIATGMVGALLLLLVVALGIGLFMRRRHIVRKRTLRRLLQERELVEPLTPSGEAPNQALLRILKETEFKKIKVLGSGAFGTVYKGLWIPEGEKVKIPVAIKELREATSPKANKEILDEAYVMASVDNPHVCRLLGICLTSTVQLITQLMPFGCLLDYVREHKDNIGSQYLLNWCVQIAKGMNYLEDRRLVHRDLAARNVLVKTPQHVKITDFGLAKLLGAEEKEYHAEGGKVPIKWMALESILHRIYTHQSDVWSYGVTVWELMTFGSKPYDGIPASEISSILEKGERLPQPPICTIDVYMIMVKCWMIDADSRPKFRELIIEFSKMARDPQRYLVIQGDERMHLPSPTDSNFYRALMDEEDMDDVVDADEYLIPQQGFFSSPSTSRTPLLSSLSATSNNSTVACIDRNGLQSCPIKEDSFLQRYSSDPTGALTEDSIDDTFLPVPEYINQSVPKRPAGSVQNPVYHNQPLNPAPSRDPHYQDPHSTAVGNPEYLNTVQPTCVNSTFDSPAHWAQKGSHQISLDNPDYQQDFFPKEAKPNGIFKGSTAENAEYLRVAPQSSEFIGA

[11] = biological target: Platelet-derived growth factor receptor beta (Homo sapiens) (UniProt P09619); assay: Inhibition of recombinant human PDGFRbeta at 10^-5 M using Ulight-Poly GAT[EAY(1:1:1)]n as substrate measured after 30 mins by LANCE assay relative to control
Sequence of Platelet-derived growth factor receptor beta (Homo sapiens) (P09619 whole entry): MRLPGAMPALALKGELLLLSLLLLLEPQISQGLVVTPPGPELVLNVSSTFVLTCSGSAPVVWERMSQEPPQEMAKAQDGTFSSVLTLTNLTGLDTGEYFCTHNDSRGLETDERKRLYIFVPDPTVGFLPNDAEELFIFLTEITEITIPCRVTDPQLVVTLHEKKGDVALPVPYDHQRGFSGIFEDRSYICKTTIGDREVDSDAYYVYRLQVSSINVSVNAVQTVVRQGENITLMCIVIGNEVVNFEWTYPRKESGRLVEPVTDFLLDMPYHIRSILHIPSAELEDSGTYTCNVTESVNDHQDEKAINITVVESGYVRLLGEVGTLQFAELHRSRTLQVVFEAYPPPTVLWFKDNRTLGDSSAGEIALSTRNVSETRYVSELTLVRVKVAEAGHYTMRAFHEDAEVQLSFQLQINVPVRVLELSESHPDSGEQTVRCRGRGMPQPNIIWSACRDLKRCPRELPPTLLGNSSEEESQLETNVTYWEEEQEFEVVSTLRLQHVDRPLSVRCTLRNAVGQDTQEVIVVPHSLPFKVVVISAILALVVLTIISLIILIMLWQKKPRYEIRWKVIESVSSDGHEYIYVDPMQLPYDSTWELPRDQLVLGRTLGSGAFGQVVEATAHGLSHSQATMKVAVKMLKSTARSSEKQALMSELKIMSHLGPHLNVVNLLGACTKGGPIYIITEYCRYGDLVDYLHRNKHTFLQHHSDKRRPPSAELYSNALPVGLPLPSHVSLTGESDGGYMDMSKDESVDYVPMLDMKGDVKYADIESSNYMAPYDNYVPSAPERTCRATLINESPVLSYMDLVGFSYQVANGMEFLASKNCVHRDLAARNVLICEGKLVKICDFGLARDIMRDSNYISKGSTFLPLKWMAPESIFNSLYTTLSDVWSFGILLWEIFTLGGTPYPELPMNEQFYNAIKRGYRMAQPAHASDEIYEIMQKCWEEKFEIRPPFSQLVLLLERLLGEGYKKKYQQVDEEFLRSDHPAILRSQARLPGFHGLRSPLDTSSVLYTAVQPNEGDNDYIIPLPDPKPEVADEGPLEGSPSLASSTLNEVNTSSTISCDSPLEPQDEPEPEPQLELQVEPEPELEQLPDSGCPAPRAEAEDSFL

GI50 [2] | GI50 [3] | IC50 [5] | inhibition [6] | inhibition [7] | inhibition [8] | inhibition [9] | inhibition [10] | inhibition [11] | Structure (SMILES) | GI50 at 72 h [1] | GI50 [4]
11.9 µM | 8.25 µM |  |  |  |  |  |  |  | COc1ccc2c(c1)SCc1cnc(Nc3cccc(Cl)c3)nc1-2 | 11.2 µM | 5.6 µM
3.42 µM | 2.23 µM |  |  |  |  |  |  |  | COc1ccc(Nc2ncc3c(n2)-c2ccc(Cl)cc2SC3)cc1OC | 2.53 µM | 4.4 µM
0.63 µM | 1.75 µM |  |  |  |  |  |  |  | COc1ccc2c(c1)SCc1cnc(Nc3cc(OC)c(OC)c(OC)c3)nc1-2 | 3.71 µM | 0.92 µM
> 20 µM | 16.8 µM |  |  |  |  |  |  |  | COc1cccc(Nc2ncc3c(n2)-c2ccc(Cl)cc2SC3)c1 | 14.2 µM | 6.83 µM
3.46 µM | 4.27 µM |  |  |  |  |  |  |  | COc1cc(Nc2ncc3c(n2)-c2ccc(Cl)cc2SC3)cc(OC)c1OC | 2.54 µM | 3.4 µM
2.8 µM | 2.1 µM |  |  |  |  |  |  |  | COc1cccc(Nc2ncc3c(n2)-c2ccc(OC)cc2SC3)c1 | 2.49 µM | 2.57 µM
18.8 µM | 6.06 µM |  |  |  |  |  |  |  | COc1ccc2c(c1)SCc1cnc(Nc3ccc(OC)c(OC)c3)nc1-2 | 10.8 µM | > 20 µM
10.3 µM | 15.5 µM |  |  |  |  |  |  |  | COc1ccc2c(c1)SCc1cnc(Nc3cccc(F)c3)nc1-2 | 11.5 µM | 13 µM
1.26 µM | 1.92 µM |  |  |  |  |  |  |  | COc1cc(Nc2ncc3c(n2)-c2ccccc2SC3)cc(OC)c1OC | 1.99 µM | 1.08 µM
1.5 µM | 2.32 µM | 110 nM | 53% | 6.1% | 88.6% | 47.4% | 6.5% | 39.9% | COc1ccc(Nc2ncc3c(n2)-c2ccccc2SC3)cc1OC | 1.5 µM | 1.63 µM
2.93 µM | 4.77 µM |  |  |  |  |  |  |  | COc1ccc2c(c1)SCc1cnc(Nc3cccc(Br)c3)nc1-2 | 1.89 µM | 2.2 µM

More lines, now with the values behind:

Structure (SMILES) | GI50 [2] | GI50 [3] | IC50 [5] | inhibition [6] | inhibition [7] | inhibition [8] | inhibition [9] | inhibition [10] | inhibition [11] | GI50 at 72 h [1] | GI50 [4]
COc1cccc(Nc2ncc3c(n2)-c2ccccc2SC3)c1 | 6.03 µM | 9.43 µM |  |  |  |  |  |  |  | 0.8 µM | 0.8 µM
Clc1cccc(Nc2ncc3c(n2)-c2ccc(Cl)cc2SC3)c1 | > 20 µM | > 20 µM |  |  |  |  |  |  |  | 16.5 µM | 7.78 µM
COc1ccc2c(c1)SCc1cnc(Nc3cccc(C(F)(F)F)c3)nc1-2 | 6.02 µM | 6.24 µM |  |  |  |  |  |  |  | 4.55 µM | 9.04 µM
FC(F)(F)c1cccc(Nc2ncc3c(n2)-c2ccccc2SC3)c1 | > 20 µM | 13.5 µM |  |  |  |  |  |  |  | 5.02 µM | 11.8 µM
Fc1cccc(Nc2ncc3c(n2)-c2ccccc2SC3)c1 | 14 µM | 9.76 µM |  |  |  |  |  |  |  | 4.51 µM | 2.06 µM
Fc1cccc(Nc2ncc3c(n2)-c2ccc(Cl)cc2SC3)c1 | 20 µM | 18.2 µM |  |  |  |  |  |  |  | 18.2 µM | > 20 µM
Clc1cccc(Nc2ncc3c(n2)-c2ccccc2SC3)c1 | > 20 µM | 10.4 µM |  |  |  |  |  |  |  | 7.13 µM | 6.1 µM
Cc1cc(C)c(/C=C2\C(=O)Nc3ccccc32)[nH]1 [SEMAXANIB] | 38 µM | 37 µM |  |  |  |  |  |  |  |  | 27 µM
Brc1cccc(Nc2ncc3c(n2)-c2ccccc2SC3)c1 | > 20 µM | 10.6 µM |  |  |  |  |  |  |  | 7 µM | 7.67 µM
FC(F)(F)c1cccc(Nc2ncc3c(n2)-c2ccc(Cl)cc2SC3)c1 | > 20 µM | 10 µM |  |  |  |  |  |  |  | 10.5 µM | 3.18 µM
Clc1ccc2c(c1)SCc1cnc(Nc3cccc(Br)c3)nc1-2 | > 20 µM | 17 µM |  |  |  |  |  |  |  | 7.11 µM | 8.5 µM
